Test system: C. acnes C2
Experiment: Inhibition of C. acnes C2 growth, 72 h culture
Format: cell-based
Details: C. acnes C2, 72 h culture

| Substance | concentration inhibiting growth of C. acnes |
| --- | --- |
| PSMβ4: phenol soluble modulin beta peptide of S. capitis E12, SEQ ID NO: 9443, individually synthesized (MTKLAEAIANAVKAGQDQDWAKLGTSIVGIAENGISLLGKVFGF; listed as Staphylococcus capitis) | 125 µg/mL |
| PSMβ1: phenol soluble modulin beta peptide of S. capitis E12, SEQ ID NO: 9437, individually synthesized (MTKLAEAIANTVKAGQDHDWAKLGTSIVGIAENGIGLLGKVFGF; listed as Staphylococcus capitis) | 62 µg/mL |
| PSMβ6: phenol soluble modulin beta peptide of S. capitis E12, SEQ ID NO: 9447, individually synthesized (MEKLFDAIRNTVDAGINQDWTKLGTSIVDIVDNGVKVISKFIGA; listed as Staphylococcus capitis) | 62 µg/mL |
